Laboratory results taken from patent US7192617B2, “Whitening agent, skin preparation for external use and cosmetic” (priority 2002, dated 2007).

Assay: Test for measuring DPPH radical scavenging activity
Conditions: 30 minutes of reaction at 30° C., absorbance at 517 nm; in terms of the evaporation residue
Procedure: 800 μl of a 500 μM DPPH solution was added to the test tube, stirred, and reacted at 30° C. Exactly after 30 minutes of reaction, the absorbance of the sample at 517 nm was measured, using distilled water as a standard. From the measured absorbances, the DPPH radical scavenging ratio was calculated, and the 50% radical scavenging activity (IC50) was obtained. The same procedure was performed with α-tocopherol, which is a known antioxidative component, for measuring the DPPH radical scavenging activity. […] From the measured values, the DPPH radical scavenging ratios were calculated.

50% DPPH radical scavenging activity (IC50): 0.13 mg/g
SMILES: Cc1c(C)c2c(c(C)c1O)CC[C@@](C)(CCC[C@H](C)CCC[C@H](C)CCCC(C)C)O2 [α-tocopherol]
